The molecules below were run against SREBP-2 (Homo sapiens (Human), UniProt Q12772) (assay: In vitro assay SREBP-2: PathHunter U2OS SREBP-2 Nuclear Translocation Cell Line, U18666A-stimulated). Conditions: PathHunter U2OS SREBP-2 nuclear translocation cells, U18666A 10 μM, overnight (16 hours).
Format: cell-based
Molecule CC(=O)N1CCN(C(=O)CC[C@@H](C)[C@H]2CC[C@H]3[C@@H]4CC=C5C[C@@H](O)CC[C@]5(C)[C@H]4CC[C@]23C)CC1 [Example 3, (R)-1-(4-acetylpiperazin-1-yl)-4-((3S,8S,9S,10R,13R,14S,17R)-3-hydroxy-10,13-dimethyl-2,3,4,7,8,9,10,11,12,13,14,15,16,17-tetradecahydro-1H-cyclopenta[a]phenanthren-17-yl)pentan-1-one] has an IC50 of under 250 nM. Cc1cccnc1CC[C@@H](C)[C@H]1CC[C@H]2[C@@H]3CC=C4C[C@@H](O)CC[C@]4(C)[C@H]3CC[C@]12C [Example 130, (3S,8S,9S,10R,13R,14S,17R)-10,13-dimethyl-17-((R)-4-(3-methylpyridin-2-yl)butan-2-yl)-2,3,4,7,8,9,10,11,12,13,14,15,16,17-tetradecahydro-1H-cyclopenta[a]phenanthren-3-ol] was tested, and the IC50 was under 250 nM. Cc1ccnc(OC[C@@H](C)[C@H]2CC[C@H]3[C@@H]4CC=C5C[C@@H](O)CC[C@]5(C)[C@H]4CC[C@]23C)c1 [Example 262, (1R,3aS,3bS,7S,9aR,9bS,11aS)-9a,11a-dimethyl-1-[(2S)-1-[(4-methylpyridin-2-yl)oxy]propan-2-yl]-1H,2H,3H,3aH,3bH,4H,6H,7H,8H,9H,9aH,9bH,10H,11H,11aH-cyclopenta[a]phenanthren-7-ol] gave an IC50 of under 250 nM. CCN(CC(=O)O)C(=O)CC[C@@H](C)[C@H]1CC[C@H]2[C@@H]3CC=C4C[C@@H](O)CC[C@]4(C)[C@H]3CC[C@]12C [Example 109, N-ethyl-N—((R)-4-((3S,8S,9S,10R,13R,14S,17R)-3-hydroxy-10,13-dimethyl-2,3,4,7,8,9,10,11,12,13,14,15,16,17-tetradecahydro-1H-cyclopenta[a]phenanthren-17-yl)pentanoyl)glycine] was tested, and the IC50 was over 10000 nM. CNC(=O)NC[C@@H](C)[C@H]1CC[C@H]2[C@@H]3CC=C4C[C@@H](O)CC[C@]4(C)[C@H]3CC[C@]12C [Example 239, 1-((S)-2-((3S,8S,9S,10R,13S,14S,17R)-3-hydroxy-10,13-dimethyl-2,3,4,7,8,9,10,11,12,13,14,15,16,17-tetradecahydro-1H-cyclopenta[a]phenanthren-17-yl)propyl)-3-methylurea] showed an IC50 of 250 to 1000 nM. In the case of C[C@H](Oc1cccnc1CO)[C@H]1CC[C@H]2[C@@H]3CC=C4C[C@@H](O)CC[C@]4(C)[C@H]3CC[C@]12C [Example 434, (3S,8S,9S,10R,13S,14S,17S)-17-((S)-1-((2-(hydroxymethyl)pyridin-3-yl)oxy)ethyl)-10,13-dim ethyl-2,3,4,7,8,9,10,11,12,13,14,15,16,17-tetradecahydro-1H-cyclopenta[a]phenanthren-3-ol], the IC50 is reported as 250 to 1000 nM. Molecule “(4R)-4-[(1R,3aS,3bS,7S,9aR,9bS,11aR)-7-hydroxy-9a,11a-dimethyl-1H,2H,3H,3aH,3bH,4H,6H,7H,8H,9H,9aH,9bH,10H,11H,11aH-cyclopenta[a]phenanthren-1-yl]-1-[(3R)-3-(pyrimidin-4-yloxy)piperidin-1-yl]pentan-1-one [Example 462]” has an IC50 of under 250 nM. C[C@H](CCC(=O)N1CCOCC1)[C@H]1CC[C@H]2[C@@H]3CC=C4C[C@@H](O)CC[C@]4(C)[C@H]3CC[C@]12C [Example 7, (R)-4-((3S,8S,9S,10R,13R,14S,17R)-3-hydroxy-10,13-dimethyl-2,3,4,7,8,9,10,11,12,13,14,15,16,17-tetradecahydro-1H-cyclopenta[a]phenanthren-17-yl)-1-morpholinopentan-1-one] was tested, and the IC50 was under 250 nM. C[C@H](CCC(=O)N(C)CC(=O)O)[C@H]1CC[C@H]2[C@@H]3CC=C4C[C@@H](O)CC[C@]4(C)[C@H]3CC[C@]12C [Example 108, N—((R)-4-((3S,8S,9S,10R,13R,14S,17R)-3-hydroxy-10,13-dimethyl-2,3,4,7,8,9,10,11,12,13,14,15,16,17-tetradecahydro-1H-cyclopenta[a]phenanthren-17-yl)pentanoyl)-N-methylglycine] was tested, and the IC50 was over 10000 nM. With CCCC1(O)CCN(C(=O)CC[C@@H](C)[C@H]2CC[C@H]3[C@@H]4CC=C5C[C@@H](O)CC[C@]5(C)[C@H]4CC[C@]23C)CC1 [Example 148, (R)-4-((3S,8S,9S,10R,13R,14S,17R)-3-hydroxy-10,13-dimethyl-2,3,4,7,8,9,10,11,12,13,14,15,16,17-tetradecahydro-1H-cyclopenta[a]phenanthren-17-yl)-1-(4-hydroxy-4-propylpiperidin-1-yl) pentan-1-one] the IC50 was under 250 nM. In the case of CNC(=O)c1cccnc1OC[C@@H](C)[C@H]1CC[C@H]2[C@@H]3CC=C4C[C@@H](O)CC[C@]4(C)[C@H]3CC[C@]12C [Example 451, 2-((S)-2-((3S,8S,9S,10R,13S,14S,17R)-3-hydroxy-10,13-dimethyl-2,3,4,7,8,9,10,11,12,13,14,15,16,17-tetradecahydro-1H-cyclopenta[a]phenanthren-17-yl)propoxy)-N-methylnicotinamide], the IC50 is reported as under 250 nM. CCC1(O)CCN(C(=O)CC[C@@H](C)[C@H]2CC[C@H]3[C@@H]4CC=C5C[C@@](C)(O)CC[C@]5(C)[C@H]4CC[C@]23C)CC1 [Example 371, (R)-1-(4-ethyl-4-hydroxypiperidin-1-yl)-4-((3S,8S,9S,10R,13R,14S,17R)-3-hydroxy-3,10,13-trimethyl-2,3,4,7,8,9,10,11,12,13,14,15,16,17-tetradecahydro-1H-cyclopenta[a]phenanthren-17-yl)pentan-1-one] showed an IC50 of 250 to 1000 nM. CNC(=O)c1cccc(OC[C@@H](C)[C@H]2CC[C@H]3[C@@H]4CC=C5C[C@@H](O)CC[C@]5(C)[C@H]4CC[C@]23C)n1 [Example 256, 6-((S)-2-((3S,8S,9S,10R,13S,14S,17R)-3-hydroxy-10,13-dimethyl-2,3,4,7,8,9,10,11,12,13,14,15,16,17-tetradecahydro-1H-cyclopenta[a]phenanthren-17-yl)propoxy)-N-methylpicolinamide] was tested, and the IC50 was 250 to 1000 nM. In the case of Cc1cccnc1OC[C@@H](C)[C@H]1CC[C@H]2[C@@H]3CC=C4C[C@@H](O)CC[C@]4(C)[C@H]3CC[C@]12C [Example 443, (3S,8S,9S,10R,13S,14S,17R)-10,13-dimethyl-17-((S)-1-((3-methylpyridin-2-yl)oxy)propan-2-yl)-2,3,4,7,8,9,10,11,12,13,14,15,16,17-tetradecahydro-1H-cyclopenta[a]phenanthren-3-ol], the IC50 is reported as under 250 nM. In the case of C[C@H](Oc1ccc(CO)nc1)[C@H]1CC[C@H]2[C@@H]3CC=C4C[C@@H](O)CC[C@]4(C)[C@H]3CC[C@]12C [Example 435, (3S,8S,9S,10R,13S,14S,17S)-17-((S)-1-((6-(hydroxymethyl)pyridin-3-yl)oxy)ethyl)-10,13-dim ethyl-2,3,4,7,8,9,10,11,12,13,14,15,16,17-tetradecahydro-1H-cyclopenta[a]phenanthren-3-ol], the IC50 is reported as 250 to 1000 nM. With Cc1cncc(O[C@@H](C)[C@H]2CC[C@H]3[C@@H]4CC=C5C[C@@H](O)CC[C@]5(C)[C@H]4CC[C@]23C)c1 [Example 432, (3S,8S,9S,10R,13S,14S,17S)-10,13-dimethyl-17-((S)-1-((5-methylpyridin-3-yl)oxy)ethyl)-2,3,4,7,8,9,10,11,12,13,14,15,16,17-tetradecahydro-1H-cyclopenta[a]phenanthren-3-ol] the IC50 was under 250 nM.

The molecules below were run against LXRβ (Homo sapiens (Human), UniProt P55055) (assay: In vitro assay LXRβ: PathHunter NHR CHO cells, LXRβ / Steroid Receptor Co-activator Peptide enzyme fragment complementation). Conditions: PathHunter NHR CHO cells, full-length human LXRβ and SRCP, chemiluminescent signal; read-out: LXRβ PPI.
Chain of LXRβ (P55055 whole entry, the tested form may be a part): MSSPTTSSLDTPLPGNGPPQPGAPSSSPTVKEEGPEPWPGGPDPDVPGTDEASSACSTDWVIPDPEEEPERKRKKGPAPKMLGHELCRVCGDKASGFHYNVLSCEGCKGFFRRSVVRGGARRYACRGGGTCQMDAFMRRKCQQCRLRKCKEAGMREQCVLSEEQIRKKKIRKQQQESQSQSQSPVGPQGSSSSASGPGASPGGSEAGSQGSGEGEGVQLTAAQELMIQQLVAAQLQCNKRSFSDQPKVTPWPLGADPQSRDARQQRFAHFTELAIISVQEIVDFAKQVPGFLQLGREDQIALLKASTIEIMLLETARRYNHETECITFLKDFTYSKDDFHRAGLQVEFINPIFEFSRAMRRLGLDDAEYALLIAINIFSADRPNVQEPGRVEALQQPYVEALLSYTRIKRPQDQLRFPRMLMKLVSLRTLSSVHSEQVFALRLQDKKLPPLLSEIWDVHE
Format: cell-based
Procedure: PathHunter NHR CHO cells stably transfected with tagged full-length human LXRβ and a nuclear fusion protein containing Steroid Receptor Co-activator Peptide (SRCP). The full-length human LXRβ was tagged with the ProLink™ component of the DiscoverX Enzyme Fragment Complementation (EFC) system and the SRCP domain is fused to the enzyme acceptor component (EA) expressed in the nucleus. Cells were seeded in a total volume of 20 μL into white walled, 384-well microplates and incubated at 37° C. overnight prior to testing. Assay media contained charcoal-dextran filtered serum to reduce the level of hormones present. Final assay vehicle concentration was 1%. […] Microplates were read following signal generation with a PerkinElmer Envision instrument for chemiluminescent signal detection.
CC(=O)N1CCN(C(=O)CC[C@@H](C)[C@H]2CC[C@H]3[C@@H]4CC=C5C[C@@H](O)CC[C@]5(C)[C@H]4CC[C@]23C)[C@@H](C)C1 [Example 428, (4R)-4-[(1R,3aS,3bS,7S,9aR,9bS,11aR)-7-hydroxy-9a,11a-dimethyl-1H,2H,3H,3aH,3bH,4H,6H,7H,8H,9H,9aH,9bH,10H,11H,11aH-cyclopenta[a]phenanthren-1-yl]-1-[(2S)-4-acetyl-2-methylpiperazin-1-yl]pentan-1-one] was tested, and the EC50 was over 10000 nM. C[C@H](CCC(=O)N(C)OC1CCCC1)[C@H]1CC[C@H]2[C@@H]3CC=C4C[C@@H](O)CC[C@]4(C)[C@H]3CC[C@]12C [Example 61, (R)-4-((3S,8S,9S,10R,13R,14S,17R)-3-hydroxy-10,13-dimethyl-2,3,4,7,8,9,10,11,12,13,14,15,16,17-tetradecahydro-1H-cyclopenta[a]phenanthren-17-yl)-N-(methyl)-N-cyclopentoxypentanamide] was tested, and the EC50 was 1000 to 10000 nM. For C[C@H](CCC(=O)N1CCC(C)(O)CC1)[C@H]1CC[C@H]2[C@@H]3CC=C4C[C@@H](O)CC[C@]4(C)[C@H]3CC[C@]12C [Example 6, (R)-4-((3S,8S,9S,10R,13R,14S,17R)-3-hydroxy-10,13-dimethyl-2,3,4,7,8,9,10,11,12,13,14,15,16,17-tetradecahydro-1H-cyclopenta[a]phenanthren-17-yl)-1-(4-hydroxy-4-methylpiperidin-1-yl)pentan-1-one], the EC50 was 250 to 1000 nM. Work on COC(=O)N1CCN(C(=O)OC[C@@H](C)[C@H]2CC[C@H]3[C@@H]4CC=C5C[C@@H](O)CC[C@]5(C)[C@H]4CC[C@]23C)CC1 [Example 238, 1-(2S)-2-[(1R,3aS,3bS,7S,9aR,9bS,11aS)-7-hydroxy-9a,11a-dimethyl-1H,2H,3H,3aH,3bH,4H,6H,7H,8H,9H,9aH,9bH,10H,11H,11aH-cyclopenta[a]phenanthren-1-yl]propyl 4-methyl piperazine-1,4-dicarboxylate] yielded an EC50 of over 10000 nM.

From patent US20230340011A1 (Asteroid Therapeutics, priority 2022, published 2023)
